In PMC6222802 (Molecules : A Journal of Synthetic Chemistry and Natural …, 2018):

Tests used:
H22 tumor bearing mice = test: Antitumor activity and toxicity in vivo in H22 tumor bearing mice; design: species or system KM mice; details: for tumor inhibition rate: 50 mg/kg, administered for 6 days, H22 tumor bearing mice; for toxicity, organ-to-body weight ratios (organ indexes: thymus, brain, lung, heart, liver, kidney, spleen) compared with NS: 50 and 30 mg/kg (CP 50 mg/kg); for body weight change compared with NS group: even at the dose of 50 mg/kg
S180 cells [1] = test: cells; details: S-180, 48 h, read-out: IC50, S180
H22 cells [2] = test: cells; details: Mus musculus, H22, 48 h, read-out: IC50, H22
K562 cells = test: cells; details: Homo sapiens, K562, 48 h, read-out: IC50, K562
MCF-7 cells = test: cells; details: Homo sapiens, MCF7, 48 h, read-out: IC50, MCF-7
LoVo cells = test: cells; details: Homo sapiens, 48 h, read-out: IC50, LoVo
L929 cells = test: cells; details: Mus musculus, L929, 48 h, read-out: IC50, L929
H22 cells [3] = test: Cell cycle analysis by flow cytometry (PI); assay type: cell-based; details: 3 μM, 48 h; for Distribution (%) G2/M: control 12.26%; for percentage of G1-phase cells: control 15.32%; for percentage of S-phase cells: control 72.42%
Method: To determine whether the suppression of cell growth by the compounds was caused by a cell-cycle effect, we used a cell cycle analysis kit to detect the DNA content of cell nuclei.
H22 cells were treated with 7a–7e at 3 μM at 37 °C for 48 h and then cells were harvested, centrifuged, resuspended and fixed in 70% EtOH overnight at 4 °C. The fixed cells were digested by RNase A (0.25 mg·mL^−1) at 37 °C for 30 min, and stained with PI (50 μg·mL^−1) in the dark at room temperature for 30 min. The distribution of the cell cycle was analyzed by Flow Cytometer.

S180 cells [4] = system: S180 cells
H22 cells [5] = system: H22 cells

With `O=P1(N(CCCl)CCCl)NCCCO1` (stereo not shown) [CP, cyclophosphamide, reference compound] the tumor inhibition rate (H22 tumor bearing mice) was 72.22% and the “toxicity, organ-to-body weight ratios (organ indexes: thymus, brain, lung, heart, liver, kidney, spleen) compared with NS” value (H22 tumor bearing mice) was “significantly increase the liver and spleen indexes”.
Compound `O=C1CCC[C@@H]2[C@H]3CCCN4CCC[C@H](CN12)[C@@H]34` [Compound 1, Sophoridine, reference compound] has an IC50 (S180 cells [1]) greater than 100 µM, an IC50 (H22 cells [2]) greater than 100 µM and an IC50 (K562 cells) greater than 100 µM. It also gave an IC50 (MCF-7 cells) greater than 100 µM, an IC50 (LoVo cells) greater than 100 µM and an IC50 (L929 cells) greater than 100 µM.
With `COC(=O)CCC[C@@H]1[C@H]2CCCN3CCC[C@H](CN1P(=O)(Oc1ccc(C)cc1)N(CCCl)CCCl)[C@@H]23` (stereo partly shown) [Compound 7a] the tumor inhibition rate (H22 tumor bearing mice) was 46.95%, the “toxicity, organ-to-body weight ratios (organ indexes: thymus, brain, lung, heart, liver, kidney, spleen) compared with NS” value (H22 tumor bearing mice) was “induced low toxicity” and the “body weight change compared with NS group” value (“body weight change” below) (H22 tumor bearing mice) was “did not significantly cause body weight change”. The “Distribution (%) G2/M” value (H22 cells [3]) was 15.15%, the “percentage of G1-phase cells” value (H22 cells [3]) was 32.02% and the “percentage of S-phase cells” value (H22 cells [3]) was 52.83%. The “SI * selectivity index (SI) of S180 against L929” value (“SI * selectivity index (SI)” below) (S180 cells [4]) was 62.51, the “SI ** selectivity index (SI) of H22 against L929” value (“SI ** selectivity index (SI)” for short) (H22 cells [5]) was 83.10 and the IC50 (S180 cells [1]) was 2.89 ± 0.23 µM. The IC50 (H22 cells [2]) was 2.17 ± 0.13 µM, the IC50 (K562 cells) was 27.1 ± 2.51 µM and the IC50 (MCF-7 cells) was 61.2 ± 2.21 µM. The IC50 (LoVo cells) was 62.5 ± 2.32 µM and the IC50 (L929 cells) was 181 ± 4.56 µM.
For `COC(=O)CCC[C@@H]1[C@H]2CCCN3CCC[C@H](CN1P(=O)(Oc1ccc(OC)cc1)N(CCCl)CCCl)[C@@H]23` (stereo partly shown) [Compound 7b], the “Distribution (%) G2/M” value (H22 cells [3]) was 12.70%, the “percentage of G1-phase cells” value (H22 cells [3]) was 15.44% and the “percentage of S-phase cells” value (H22 cells [3]) was 71.86%. For the same compound, the “SI * selectivity index (SI)” value (S180 cells [4]) was 29.80, the “SI ** selectivity index (SI)” value (H22 cells [5]) was 39.36 and the IC50 (S180 cells [1]) was 3.5 ± 0.35 µM. For the same compound, the IC50 (H22 cells [2]) was 2.65 ± 0.25 µM, the IC50 (K562 cells) was 54.5 ± 2.32 µM and the IC50 (MCF-7 cells) was 38.9 ± 2.56 µM. For the same compound, the IC50 (LoVo cells) was 46.2 ± 2.32 µM and the IC50 (L929 cells) was 104 ± 3.2 µM.
With `COC(=O)CCC[C@@H]1[C@H]2CCCN3CCC[C@H](CN1P(=O)(Oc1ccc(Cl)cc1)N(CCCl)CCCl)[C@@H]23` (stereo partly shown) [Compound 7c] the tumor inhibition rate (H22 tumor bearing mice) was 54.83%, the “toxicity, organ-to-body weight ratios (organ indexes: thymus, brain, lung, heart, liver, kidney, spleen) compared with NS” value (H22 tumor bearing mice) was “induced low toxicity” and the “body weight change” value (H22 tumor bearing mice) was “did not significantly cause body weight change”. The “Distribution (%) G2/M” value (H22 cells [3]) was 6.30%, the “percentage of G1-phase cells” value (H22 cells [3]) was 51.22% and the “percentage of S-phase cells” value (H22 cells [3]) was 42.48%. For the same compound, the “SI * selectivity index (SI)” value (S180 cells [4]) was 80.40, the “kinetics of growth inhibition, S180” value (S180 cells [4]) was “concentration-dependent and time-dependent” and the “SI ** selectivity index (SI)” value (H22 cells [5]) was 160.80. The “kinetics of growth inhibition, H22” value (H22 cells [5]) was “concentration-dependent and time-dependent”, the IC50 (S180 cells [1]) was 2.02 ± 0.17 µM and the IC50 (H22 cells [2]) was 1.01 ± 0.08 µM. The IC50 (K562 cells) was 18.1 ± 1.34 µM, the IC50 (MCF-7 cells) was 31.9 ± 2.45 µM and the IC50 (LoVo cells) was 33.4 ± 2.45 µM. The IC50 (L929 cells) was 162 ± 4.12 µM.
With `COC(=O)CCC[C@@H]1[C@H]2CCCN3CCC[C@H](CN1P(=O)(Oc1ccc([N+](=O)[O-])cc1)N(CCCl)CCCl)[C@@H]23` (stereo partly shown) [Compound 7d] the “Distribution (%) G2/M” value (H22 cells [3]) was 15.66%, the “percentage of G1-phase cells” value (H22 cells [3]) was 16.10% and the “percentage of S-phase cells” value (H22 cells [3]) was 68.24%. For the same compound, the “SI * selectivity index (SI)” value (S180 cells [4]) was 52.40, the “kinetics of growth inhibition, S180” value (S180 cells [4]) was “concentration-dependent and time-dependent” and the “SI ** selectivity index (SI)” value (H22 cells [5]) was 58.51. The “kinetics of growth inhibition, H22” value (H22 cells [5]) was “concentration-dependent and time-dependent”, the IC50 (S180 cells [1]) was 2.01 ± 0.14 µM and the IC50 (H22 cells [2]) was 1.8 ± 0.12 µM. The IC50 (K562 cells) was 20.3 ± 2.05 µM, the IC50 (MCF-7 cells) was 34.6 ± 2.21 µM and the IC50 (LoVo cells) was 32.2 ± 2.21 µM. For the same compound, the IC50 (L929 cells) was 105 ± 3.1 µM.
For `COC(=O)CCC[C@@H]1[C@H]2CCCN3CCC[C@H](CN1P(=O)(Oc1ccccc1)N(CCCl)CCCl)[C@@H]23` (stereo partly shown) [Compound 7e], the tumor inhibition rate (H22 tumor bearing mice) was 47.78%, the “toxicity, organ-to-body weight ratios (organ indexes: thymus, brain, lung, heart, liver, kidney, spleen) compared with NS” value (H22 tumor bearing mice) was “induced low toxicity” and the “body weight change” value (H22 tumor bearing mice) was “did not significantly cause body weight change”. For the same compound, the “Distribution (%) G2/M” value (H22 cells [3]) was 11.75%, the “percentage of G1-phase cells” value (H22 cells [3]) was 17.21% and the “percentage of S-phase cells” value (H22 cells [3]) was 71.04%. The “SI * selectivity index (SI)” value (S180 cells [4]) was 37.96, the “SI ** selectivity index (SI)” value (H22 cells [5]) was 74.89 and the IC50 (S180 cells [1]) was 3.65 ± 0.25 µM. The IC50 (H22 cells [2]) was 1.85 ± 0.16 µM, the IC50 (K562 cells) was 32.7 ± 2.56 µM and the IC50 (MCF-7 cells) was 86.6 ± 2.67 µM. It also gave an IC50 (LoVo cells) of 70 ± 2.78 µM and an IC50 (L929 cells) of 139 ± 3.35 µM.
`COc1cccc2c1C(=O)c1c(O)c3c(c(O)c1C2=O)C[C@@](O)(C(=O)CO)C[C@@H]3O[C@H]1C[C@H](N)[C@H](O)[C@H](C)O1` [Dox, Doxorubicin, reference compound] showed an IC50 (S180 cells [1]) of 29.2 ± 2.07 µM, an IC50 (H22 cells [2]) of 36.5 ± 2.56 µM and an IC50 (K562 cells) of 17.2 ± 1.78 µM. For the same compound, the IC50 (MCF-7 cells) was 0.44 ± 0.08 µM, the IC50 (LoVo cells) was 0.15 ± 0.02 µM and the IC50 (L929 cells) was 0.23 ± 0.08 µM.
